Data reported in patent publication US20240269094A1, “Treatment of canine dermatitis and skin irritation” (priority 2023, published 2024).

Assays:
philtrum skin = test: Philtrum (skin) bioassay of cooling; format: in vivo, human; conditions: 8% wt/vol on philtrum
Method: FIG. 5. The philtrum bioassay. Cooling agents, prepared as a or in solution are applied to the philtrum skin. Cooling intensity is rated on a scale of 0 to 3, with 0=no changes in sensation, 1=a slight feeling of coolness, cold or tingling, 2=a clearcut feeling of coolness of cold, and 3=a robust feeling of coolness of cold. The duration of cooling was recorded until two zeroes were measured 10 min apart.
TRPM8 EC50 Receptor Assay. […] A receptor assay is a standard tool and can be done quickly. For example, in a 384-plate assay, you can easily test 10 compounds and get dose-response data. For a chemical agonist, an in vitro TRPM8 assay generates an EC50 (median effective concentration). But the quantitative correlation between the EC50 on TRPM8 and cooling sensation was vague. That is, the science was “roughly” predictive, but there was considerable uncertainty for each agonist. […] Philtrum (Skin) Assay. For cooling sensations on the skin, it is necessary to test the substance on the skin. Wei proposed the use of the skin on the philtrum as a test site for cooling activity of chemicals (FIG. 5). The test substance is dissolved in a carrier, such as solvent, gel, or ointment and applied to the philtrum, a surface area of […]. The subject records sensations on the philtrum and environs as:
The subject is given a form to record observations and instructions to mark sensations on the philtrum and environs as: 0=no changes in sensation, 1=a slight feeling of coolness, cold, or tingling, 2=a clearcut feeling of coolness or cold, and 3=a robust feeling of coolness and cold.
The intervals for measurements are usually at 5, to 15 min after application, until two successive zeros are obtained. The philtrum application site is the midline groove above the upper lip border and vermilion. The gel is placed on the philtrum with a cotton-tipped applicator up to the nasolabial folds and sometimes, but not deliberately, on the lower nostrils (subnasale). Cold receptors densely innervate the philtrum skin (FIG. 5), second only to the surfaces of the eyeball and anogenitalia. The lips also have a high density of “cold spots.” Hensel et al. mapped the cold spots on the human face (cited in Dhaka et al., 2008). In animals such as the rat the mystacial pad (nose pad with vibrissae) is abundantly labeled with TRPM8-fibers. “Cold Points” linked to single-unit neuronal discharges can be measured in experimental animals. Wei has direct experience in such experiments (Poree et al., 1989).
Dip a cotton-tipped applicator (Puritan Cotton-tipped applicators, or Q-Tips) into a reservoir bottle containing the liquid or semi-liquid (gel) test substance. The composition adhering to the cotton (about 0.1 mL) is put on the skin. The philtrum site is shown in a cartoon. A subject can practice the method in front of a mirror with a high-intensity light source. Results for test on the philtrum are in Table 8 and FIG. 5. See data in FIG. 6. Cooling agents, prepared as an 8% wt./vol. gel, was tested topically on the philtrum skin assay. The duration of cooling was recorded (min on y-axis). The startling activity of FEMA 4557, cooling for ˜3 hr, was unexpected and surprising. FEMA 3784 is also known as Cool 10 or menthoxypropanediol. […]

TRPM8 [1] = target: T1, TRPM8 (Rattus norvegicus, UniProt Q8R455); parameters: EC50; other: Sherkheli, 196/1500; conditions: Ref. 4 (Sherkheli et al., 2010); cited from earlier work
TRPM8 [2] = target: T2, TRPM8 (Mus musculus, UniProt Q8R4D5); conditions: Ref. 2 (Behrendt et al., 2004); cited from earlier work
T2 sequence (Q8R4D5 whole entry): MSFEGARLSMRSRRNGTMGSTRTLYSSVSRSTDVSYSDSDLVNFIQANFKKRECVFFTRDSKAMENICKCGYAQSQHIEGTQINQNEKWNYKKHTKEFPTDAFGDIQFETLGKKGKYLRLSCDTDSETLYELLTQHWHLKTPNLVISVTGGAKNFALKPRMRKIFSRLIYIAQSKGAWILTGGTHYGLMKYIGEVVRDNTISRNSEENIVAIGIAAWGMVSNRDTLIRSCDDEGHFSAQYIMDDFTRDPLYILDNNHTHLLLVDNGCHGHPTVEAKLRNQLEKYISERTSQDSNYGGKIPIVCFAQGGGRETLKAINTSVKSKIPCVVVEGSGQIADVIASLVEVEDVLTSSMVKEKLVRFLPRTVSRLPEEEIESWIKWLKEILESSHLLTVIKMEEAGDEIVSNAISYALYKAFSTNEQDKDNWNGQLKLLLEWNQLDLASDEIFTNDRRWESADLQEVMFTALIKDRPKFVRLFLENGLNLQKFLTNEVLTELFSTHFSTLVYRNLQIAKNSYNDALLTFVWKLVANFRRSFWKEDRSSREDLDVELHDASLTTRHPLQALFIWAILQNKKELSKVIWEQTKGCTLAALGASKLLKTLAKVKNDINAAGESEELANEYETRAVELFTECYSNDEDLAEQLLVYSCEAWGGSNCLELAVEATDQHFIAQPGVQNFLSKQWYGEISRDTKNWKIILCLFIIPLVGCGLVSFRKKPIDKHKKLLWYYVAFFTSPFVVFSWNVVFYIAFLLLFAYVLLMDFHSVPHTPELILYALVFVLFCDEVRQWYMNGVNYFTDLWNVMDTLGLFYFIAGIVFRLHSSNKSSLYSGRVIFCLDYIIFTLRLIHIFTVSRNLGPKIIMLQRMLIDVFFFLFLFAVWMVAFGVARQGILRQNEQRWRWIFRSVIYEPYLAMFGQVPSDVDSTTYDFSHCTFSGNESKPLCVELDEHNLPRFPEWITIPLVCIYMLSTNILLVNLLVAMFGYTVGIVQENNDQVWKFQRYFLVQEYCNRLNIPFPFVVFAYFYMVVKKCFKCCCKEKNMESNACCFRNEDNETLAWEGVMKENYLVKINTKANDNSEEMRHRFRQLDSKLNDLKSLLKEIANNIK

tongue = test: Oral cavity screen: 15 mg of crystals on the dorsal surface of the tongue; format: in vivo, human
Method: In this discovery, sensory activity in the oral cavity was the first screen. The goal was to identify candidates producing unusual sensations. Test agents, prepared as 15 mg of white crystals, were placed on the dorsal surface of the tongue. The chemical structures and identifying characteristics are in Table 1. […] Related cooling agents were not freezing cold, except for WS-23.

TRPM8 [3] = target: T3, TRPM8 (Homo sapiens, UniProt Q7Z2W7); test: TRPM8 in vitro assay, EC50 of cooling agents (published data, Table 5 / FIG. 3); format: cell-based; parameters: EC50; other: Johnson, 2.2/2.2; conditions: Johnson, 2.2/2.2
Source text: (§1) FIG. 3. Median Effective Dose (EC50) of various cooling agents in TRPM8 in vitro assay.
(§2) A receptor assay is a standard tool and can be done quickly. For example, in a 384-plate assay, you can easily test 10 compounds and get dose-response data. For a chemical agonist, an in vitro TRPM8 assay generates an EC50 (median effective concentration). But the quantitative correlation between the EC50 on TRPM8 and cooling sensation is not always clear. That is, the language of receptor identification and potency was “roughly” predictive, but there was considerable uncertainty for each agonist. […] Table 5 summarizes results on TRPM8 EC50 (see FIG. 3). The specific references for each value are: […] The full citations are listed in the References. Leffingwell. Ref. 4 gives the FEMA numbers for each compound.
(§3) FIG. 3. Median Effective Dose (EC50) of various cooling agents in TRPM8 in vitro assay. […] The Ref. No. in Table 5 are to: 1=McKemy et al., 2002; 2=Behrendt et al., 2004; 3=Bodding et al., 2007; 4=Sherkheli et al., 2010; and 5=Johnson et al., 2018.
(§4) TRPM8 EC50 Receptor Assay. […] A receptor assay is a standard tool and can be done quickly. […] But the quantitative correlation between the EC50 on TRPM8 and cooling sensation was vague. […]

oral cavity = conditions: 100 ppm in 5% sucrose; scale of 0 to 9 units; Johnson, 2018; cited from earlier work
TRPM8 [4] = target: T2, TRPM8; test: TRPM8 in vitro assay, EC50 of cooling agents (published data, Table 5 / FIG. 3); format: cell-based; conditions: Behrendt et al., 4.1/44
Source text: as §1, §2, §3, §4

TRPM8 [5] = target: T1, TRPM8; test: as above; format: cell-based; parameters: EC50; other: Sherkheli, 196/1500; conditions: Sherkheli, 196/1500
Source text: as §1, §2, §3, §4

TRPM8 [6] = target: T3, TRPM8; parameters: EC50; other: Johnson, 2.2/2.2; conditions: Ref. 5 (Johnson et al., 2018); cited from earlier work

Compound: CNC(=O)C(C)(C(C)C)C(C)C [WS-23]
- Duration of cooling (philtrum skin): 25 ± 3 min
- EC50 (TRPM8 [1]): 1500 µM
- EC50 (TRPM8 [2]): 44 µM
- Effects of 15 mg on tongue: duration (tongue): ~18 min
- Effects of 15 mg on tongue: sensation (tongue): painful cold in throat
- potency relative to menthol (TRPM8 EC50 ratio) (TRPM8 [3]): 1
- Cooling Intensity Oral Cavity Scaled (oral cavity): 2.25
- potency relative to menthol (TRPM8 EC50 ratio) (TRPM8 [4]): 0.09
- potency relative to menthol (TRPM8 EC50 ratio) (TRPM8 [5]): 0.13
- EC50 (TRPM8 [6]): 2.2 µM
